Assay results published in US20100310478A1, “SUBSTITUTED BENZOQUINONES AND HYDROQUINONES IN THE TREATMENT OF PERIODONTAL DISEASES” (priority 2007, published 2010).
≈ marks a conversion by molar mass, not a printed value.

What was measured:
[1] = test system: P. gingivalis NCTC 11834; assay: Minimum inhibitory concentration (MIC) assay; assay type: cell-based, Porphyromonas gingivalis; conditions: Table 7
Protocol: (§1) P. gingivalis strains were cultured and maintained on Wilkins-Chalgren Anaerobe Medium (agar and broth) at pH 7.0; all cultures were incubated anaerobically at 37° C. for 5-7 days. This is a standard international method for quantitatively assessing the antimicrobial activity of a compound in a liquid medium. The method used a sterile 96-well microtitre plate, capable of holding about 200 μl of liquid per well. […] The culture medium was as described above. The wells were inoculated with a liquid suspension of freshly grown micro-organism and incubated under the conditions described above. After incubation, the microtitre plate was examined visually (with the aid of a light box) for cloudiness in each well, which would indicate microbial growth. The MIC value was recorded as the lowest concentration of test compound required to inhibit microbial growth, ie the lowest concentration for which the liquid in the well remained clear. The assays were conducted in duplicate (minimum) and included both negative (culture medium with no micro-organisms) and positive (culture medium plus diluting solvent plus micro-organism) controls.

[2] = test system: P. gingivalis NCTC 11834; assay: Minimum bactericidal concentration (MBC) assay; assay type: cell-based, Porphyromonas gingivalis; conditions: Table 7
Protocol: P. gingivalis strains were cultured and maintained on Wilkins-Chalgren Anaerobe Medium (agar and broth) at pH 7.0; all cultures were incubated anaerobically at 37° C. for 5-7 days.
(§2) This assay, normally carried out after an MIC assay, determines the minimum concentration of a compound that is lethal to the micro-organism being tested.
(§3) These samples were then individually sub-cultured on antibiotic-free agar medium, under the incubation conditions described above. Following incubation they were examined visually for microbial growth.
(§4) The ratio of MIC to MBC should ideally be as close to 1 as possible.

[3] = test system: S. mutans ATCC 25175; assay: Minimum inhibitory concentration (MIC) assay; assay type: cell-based, Streptococcus mutans; conditions: Table 8
Protocol: as §1, with “S. mutans was” for “P. gingivalis strains were”, “7.0 supplemented with 1 g/L glucose;” for “7.0;”, “incubated” for “incubated anaerobically”, “48 hours in an atmosphere containing 5% CO2. For the formation of biofilms in biofilm disruption assays, however, S. mutans was grown in brain-heart infusion broth supplemented with 5% sucrose.” for “5-7 days.”

[4] = test system: S. mutans ATCC 25175; assay: Minimum bactericidal concentration (MBC) assay; assay type: cell-based, Streptococcus mutans; conditions: Table 8
Protocol: S. mutans was cultured and maintained on Wilkins-Chalgren Anaerobe Medium (agar and broth) at pH 7.0 supplemented with 1 g/L glucose; all cultures were incubated at 37° C. for 48 hours in an atmosphere containing 5% CO2. For the formation of biofilms in biofilm disruption assays, however, S. mutans was grown in brain-heart infusion broth supplemented with 5% sucrose.
as §2, §3, §4

Compound | MIC [1] | MBC [2] | MIC [3] | MBC [4] | MIC/MBC ratio [4] | MIC/MBC ratio [2]
CC(C)(C)C1=CC(=O)C=CC1=O [2-t-butyl-p-benzoquinone] | < 0.49 µg/mL | < 0.49 µg/mL | 31.2 µg/mL (≈ 190 µM) | 62.5 µg/mL (≈ 381 µM) | 0.5 | 
CCC(C)(C)c1cc(O)c(C(C)(C)CC)cc1O [2,5-di-t-pentyl-p-hydroquinone] | 3.9 µg/mL (≈ 15.6 µM) | 3.9 µg/mL (≈ 15.6 µM) | 125 µg/mL (≈ 499 µM) | 250 µg/mL (≈ 998 µM) | 0.5 | 1
CC1=CC(=O)C(Cl)=CC1=O [2-chloro-5-methyl-p-benzoquinone] | 0.98 µg/mL (≈ 6.26 µM) | 1.95 µg/mL (≈ 12.5 µM) | 62.5 µg/mL (≈ 399 µM) | 125 µg/mL (≈ 798 µM) | 0.5 | 0.5
Oc1ccc(O)c(F)c1F [2,3-difluoro-p-hydroquinone] | 3.9 µg/mL (≈ 26.7 µM) | 7.8 µg/mL (≈ 53.4 µM) | 125 µg/mL (≈ 856 µM) | 250 µg/mL (≈ 1710 µM) | 0.5 | 0.5
CC1=CC(=O)C(C(C)C)=CC1=O [Thymoquinone, thymoquinone] | 0.49 µg/mL (≈ 2.98 µM) | 0.98 µg/mL (≈ 5.97 µM) | 3.9 µg/mL (≈ 23.8 µM) | > 250 µg/mL | <0.0156 | 0.5
CCCCCCc1ccc(O)cc1O [4-hexyl resorcinol] | 3.9 µg/mL (≈ 20.1 µM) | 7.8 µg/mL (≈ 40.1 µM) | 31.2 µg/mL (≈ 161 µM) | 125 µg/mL (≈ 643 µM) | 0.25 | 0.5
